SMILES strings stand for the structures. Active and inactive are the calls of the source. The calls are words filed in the database; no cut-off is given here.

The values that follow come from ChEMBL document CHEMBL3244341, “Potential antiinflammatory compounds. 2. Acidic antiinflammatory 1,2-benzisoxazoles” (J Med Chem, 1979).

Data set [1] concerns Rattus norvegicus. In words: Antiinflammatory activity in rat assessed as reduction in carrageenan-induced foot edema at 50 mg/kg, po relative to phenylbutazone-treated control. The data set is classed as functional.
Data set [2] can be described thus: Toxicity in po dosed mouse. The format is organism-based. To be noted: in vivo.
Data set [3] concerns Rattus norvegicus. In words: Antiinflammatory activity in rat assessed as reduction in carrageenan-induced foot edema at 50 mg/kg, po. The data set is classed as functional.
For data set [4], the system named is Rattus norvegicus. In words: Antiinflammatory activity in rat assessed as reduction in carrageenan-induced foot edema at 50 mg/kg, po relative to hydrocortisone-treated control. The data set is classed as functional.
The species named for data set [5] is Rattus norvegicus. In words: Antiinflammatory activity against mycobacterial adjuvant-induced arthritis in albino rat assessed as reduction in foot swelling by micrometer analysis. The format is functional, organism-based.
For data set [6], the system named is Rattus norvegicus. In words: Antiinflammatory activity in rat assessed as reduction in carrageenan-induced foot edema at 25 mg/kg, po. The data set is classed as functional. In general terms: The carrageenan paw model is a standard test of acute inflammation.
For data set [7], the system named is Rattus norvegicus. In words: Antiinflammatory activity in rat assessed as reduction in carrageenan-induced foot edema at 50 mg/kg, po bid administered 3 hrs and again 0.5 hrs prior to carrageenan challenge relative to phenylbutazone-treated control. The data set is classed as functional.
For data set [8], the system named is Rattus norvegicus. In words: Antiinflammatory activity in rat assessed as reduction in carrageenan-induced foot edema at 50 mg/kg, po bid administered 3 hrs and again 0.5 hrs prior to carrageenan challenge. The format is functional.

Regarding `CC(C(=O)O)c1cccc2c(-c3ccccc3)noc12` (configuration not stated), the inhibition in vivo at 50 mg/kg in the data set on Rattus norvegicus [1] is 32%; in the data set on Rattus norvegicus [3], 42%. Moreover, the LD50 in data set [2] amounted to 1600 mg/kg.

Turning to `O=C(O)Cc1cccc2c(-c3ccc(Cl)cc3)noc12`, the values for the inhibition in vivo at 50 mg/kg with Rattus norvegicus [1] and in the data set on Rattus norvegicus [3] were 49% and 36%, respectively. Moreover, in data set [2], the LD50 was found to be 600 mg/kg.

As to `CC(C(=O)O)c1ccc2onc(-c3ccc(Cl)cc3)c2c1` (configuration not stated), the inhibition in vivo at 50 mg/kg with Rattus norvegicus [4] came to 38%; with Rattus norvegicus [3], 18%. Also, in data set [2], the LD50 turned out to be 800 mg/kg.

For the compound `CC(C(=O)O)c1ccc2c(-c3ccc(F)cc3)noc2c1` (configuration not stated), the inhibition in vivo at 50 mg/kg in the data set on Rattus norvegicus [1] turned out to be 57%; in the data set with Rattus norvegicus [3] it was 37%. This compound showed a median lethal dose (LD50) in data set [2] of 400 mg/kg.

As to `CC(C(=O)O)c1cccc2c(-c3ccc(Cl)cc3)noc12` (configuration not stated), in the data set listed under Rattus norvegicus [5], the inhibition entry is “Active”. Besides, the inhibition in vivo at 25 mg/kg with Rattus norvegicus [6] came to 46%. The inhibition in vivo at 50 mg/kg in the data set with Rattus norvegicus [1] stood at 48%. In data set [2], this compound registered an LD50 of 200 mg/kg.

Take `O=C(O)Cc1ccc2onc(-c3ccc(Cl)cc3)c2c1`: the inhibition in vivo at 50 mg/kg with Rattus norvegicus [7] came out at 36%; in the data set with Rattus norvegicus [8], 22%. Further, in data set [2], the 50% lethal dose (LD50) was 600 mg/kg.

As for `CC(C(=O)O)c1ccc2c(-c3ccc(Cl)cc3)noc2c1` (configuration not stated), the inhibition in vivo at 50 mg/kg amounted to 38% with Rattus norvegicus [4] and 46% in the data set with Rattus norvegicus [3]. Besides, the LD50 in data set [2] was 600 mg/kg.

As usually defined, the inhibition in vivo is the share of the control response that was lost under treatment. Broadly, the LD50 is the dose at which mortality reaches 50%. Higher therefore signals lower toxicity.
